Experimental data published in the supplement of paper PMC10307832.

Columns and labels:
Test in all cases: relative viability (nuclei count vs DMSO), 5 days (fraction); higher = more cells survive
Kobe2602 + Navitoclax = compound: C1=CC(=CC=C1NC(=S)NNC2=C(C=C(C=C2[N+](=O)[O-])C(F)(F)F)[N+](=O)[O-])F [Kobe2602] + CC1(C)CCC(c2ccc(Cl)cc2)=C(CN2CCN(c3ccc(C(=O)NS(=O)(=O)c4ccc(N[C@H](CCN5CCOCC5)CSc5ccccc5)c(S(=O)(=O)C(F)(F)F)c4)cc3)CC2)C1 [Navitoclax] (partner 0.5 µM)
Procedure, shortened: (§1)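 Each reported value is a median over duplicate plates. It expresses relative viability: treated-well nuclei count divided by vehicle-well nuclei count. Lung cancer cell lines in 1536-well plates were dosed by pin tool a day after seeding, alone with one drug or with a fixed anchor-drug dose plus five library-drug doses (not always all listed) in √10 steps, and nuclei were counted after 5 days.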

Kobe2602 + Lapatinib = compound: C1=CC(=CC=C1NC(=S)NNC2=C(C=C(C=C2[N+](=O)[O-])C(F)(F)F)[N+](=O)[O-])F [Kobe2602] + CS(=O)(=O)CCNCc1ccc(-c2ccc3ncnc(Nc4ccc(OCc5cccc(F)c5)c(Cl)c4)c3c2)o1 [Lapatinib] (partner 2 µM)
Procedure, shortened: as §1

[1] = compound: COc1cc2nccc(Oc3ccc(NC(=O)C4(C(=O)Nc5ccc(F)cc5)CC4)cc3)c2cc1OC [Cabozantinib] + O=C(CCCCCCC(=O)Nc1ccccc1)NO [Vorinostat] (partner 1 µM)
Procedure, shortened: as §1

Zosuquidar + Dasatinib = compound: O[C@@H](COc1cccc2ncccc12)CN1CCN([C@@H]2c3ccccc3[C@@H]3[C@H](c4ccccc42)C3(F)F)CC1 [Zosuquidar] + Cc1nc(Nc2ncc(C(=O)Nc3c(C)cccc3Cl)s2)cc(N2CCN(CCO)CC2)n1 [Dasatinib] (partner 0.075 µM)
Procedure, shortened: as §1

Row | Cell Line | relative viability (Kobe2602 + Navitoclax; first compound 0.2 µM) | relative viability (Kobe2602 + Navitoclax; first compound 0.6325 µM) | relative viability (Kobe2602 + Navitoclax; first compound 2 µM) | relative viability (Kobe2602 + Navitoclax; first compound 6.325 µM) | relative viability (Kobe2602 + Navitoclax; first compound 20 µM) | relative viability (Kobe2602 + Lapatinib; first compound 0.2 µM) | relative viability (Kobe2602 + Lapatinib; first compound 0.6325 µM) | relative viability (Kobe2602 + Lapatinib; first compound 2 µM) | relative viability (Kobe2602 + Lapatinib; first compound 6.325 µM) | relative viability (Kobe2602 + Lapatinib; first compound 20 µM) | relative viability ([1]; first compound 0.02 µM) | relative viability ([1]; first compound 0.06325 µM) | relative viability ([1]; first compound 0.2 µM) | relative viability ([1]; first compound 0.6325 µM) | relative viability ([1]; first compound 2 µM) | relative viability (Zosuquidar + Dasatinib; first compound 0.01 µM) | relative viability (Zosuquidar + Dasatinib; first compound 0.03162 µM) | relative viability (Zosuquidar + Dasatinib; first compound 0.1 µM) | relative viability (Zosuquidar + Dasatinib; first compound 0.3162 µM) | relative viability (Zosuquidar + Dasatinib; first compound 1 µM)
1 | 201T | 1.23 | 1.18 | 1.18 | 1.3 | 1.29 | 0.986 | 1.1 | 1.07 | 1.01 | 1.04 | 0.77 | 1.03 | 0.962 | 0.932 | 0.969 | 0.611 | 0.551 | 0.526 | 0.632 | 0.581
2 | A549 | 1.26 | 1.21 | 1.22 | 1.11 | 1.17 | 0.922 | 0.978 | 0.88 | 1.05 | 0.881 | – | – | – | – | – | – | – | – | – | –
3 | A-427 | 1 | 0.945 | 0.934 | 0.97 | 0.459 | 0.995 | 1.02 | 1.01 | 1.03 | 0.953 | 0.871 | 0.865 | 0.902 | 0.841 | 0.951 | 0.603 | 0.684 | 0.634 | 0.709 | 0.8
4 | ABC-1 | – | – | – | – | – | 1.5 | 1.24 | 1.11 | 1.22 | 1.27 | – | 1.24 | 0.99 | 1.02 | 0.913 | 0.625 | 0.592 | 0.575 | 0.766 | 0.532
5 | Calu-6 | 0.818 | 0.875 | 0.866 | 0.826 | 0.744 | 1.08 | 1.14 | 1.1 | 1.04 | 0.995 | – | – | – | – | – | – | – | – | – | –
6 | ChaGo-K-1 | 1.12 | 1.26 | 1.02 | 1.05 | 0.933 | – | – | – | – | – | 0.741 | 0.81 | 0.704 | 0.72 | 0.772 | 0.615 | 0.583 | 0.602 | 0.737 | 0.624
7 | EBC-1 | 0.373 | 0.488 | 0.436 | 0.452 | 0.483 | 0.211 | 0.201 | 0.204 | 0.227 | 0.208 | – | – | – | – | – | – | – | – | – | –
8 | HCC-44 | 0.989 | 0.998 | 0.928 | 0.963 | 1.02 | 1 | 1.05 | 1.01 | 1.03 | 0.954 | 1.1 | 1.29 | 1.08 | 1.14 | 1.08 | – | – | – | – | –
9 | IA-LM | – | 0.741 | 0.737 | 0.639 | 0.669 | 0.584 | 0.614 | 0.732 | 0.805 | 0.811 | 0.995 | 1.18 | 1 | 0.946 | 1.2 | – | – | – | – | –
10 | LCLC-103H | – | – | – | – | – | – | – | – | – | – | 0.762 | 0.906 | 0.892 | 0.791 | 0.736 | 0.429 | 0.447 | 0.399 | 0.488 | 0.537
11 | NCI-H358 | – | – | – | – | – | 0.448 | 0.485 | 0.451 | 0.451 | 0.452 | 0.683 | 0.905 | 0.556 | 0.623 | 0.534 | 0.144 | 0.172 | 0.142 | 0.183 | 0.153
12 | NCI-H441 | 0.602 | 0.807 | 0.601 | 0.575 | 0.679 | – | – | – | – | – | 0.782 | 0.922 | 0.882 | 0.794 | 0.845 | 0.521 | 0.606 | 0.574 | 0.683 | 0.718
13 | NCI-H522 | – | – | – | – | – | – | – | – | – | – | 0.737 | 1.01 | 1.03 | 0.902 | 0.902 | 0.933 | 0.739 | 0.867 | 0.853 | 1.45
14 | NCI-H650 | – | – | – | – | – | 0.852 | 1.07 | 1.19 | 1.04 | 0.99 | 0.412 | 0.489 | 0.458 | 0.721 | 0.414 | 0.442 | 0.344 | 0.373 | 0.517 | 0.455
15 | NCI-H661 | – | – | – | – | – | 0.627 | 0.601 | 0.537 | 0.434 | 0.567 | 0.783 | 0.856 | 0.879 | 0.809 | 0.935 | 0.812 | 0.756 | 0.922 | 1.03 | 0.865
16 | NCI-H1299 | 1.07 | 1.04 | 1.06 | 1.08 | 1.02 | 0.997 | 0.991 | 0.949 | 1.01 | 0.935 | – | – | – | – | – | – | – | – | – | –
17 | NCI-H1563 | – | – | – | – | – | 0.912 | 1.37 | 1.03 | 1.04 | 1.02 | – | – | – | – | – | 0.435 | 0.47 | 0.51 | 0.459 | 0.454
18 | NCI-H1623 | – | – | – | – | – | – | – | – | – | – | – | – | – | – | – | 0.499 | 0.634 | 0.487 | 0.607 | 0.498
19 | NCI-H1648 | – | – | – | – | – | – | – | – | – | – | 0.425 | 0.589 | – | 0.55 | 0.408 | – | – | – | – | –
20 | NCI-H1703 | 1.44 | 1.24 | 1.12 | 0.893 | 1.06 | 0.903 | 0.975 | 0.925 | 0.982 | 0.694 | – | – | – | – | – | – | – | – | – | –
21 | NCI-H1792 | 0.67 | 0.626 | 0.604 | 0.609 | 0.695 | 0.963 | 0.878 | 0.992 | 0.928 | 0.978 | – | – | – | – | – | 0.819 | 0.514 | – | 0.927 | 0.757
22 | NCI-H2342 | – | – | – | – | – | – | – | – | – | – | 0.735 | 0.776 | 0.697 | 0.798 | 0.724 | 0.275 | 0.312 | 0.327 | 0.313 | 0.299
23 | SW 900 | – | – | – | – | – | – | – | – | – | – | 0.521 | 0.678 | 0.411 | 0.515 | 0.464 | 0.795 | 0.609 | 0.57 | 0.545 | 0.61
